Data set [1] relates to human coronary artery smooth muscle cells (CASMC). The data set can be described thus: Vascular smooth muscle cell (SMC) antiproliferation assay. The data set is classed as cell-based. Conditions: viable cell count (Trypan Blue exclusion) ~68 hours after compound addition. The method, then: Suppression of Proliferation of Human Coronary Artery Smooth Muscle Cells (CASMC)
Vascular Smooth Muscle Cell (SMC) Antiproliferation Assay
The cells used in this assay were human coronary artery smooth muscle cells (CASMC) supplied by Clonetics Corp. (San Diego, Calif.). They were maintained in SmGM-2 growth medium (Clonetics Corp.), which consisted of modified MCDB 131 medium supplemented with 5% (v/v) fetal bovine serum (FBS), 0.5 ng/mL human recombinant epidermal growth factor (EGF), 2 ng/mL human recombinant fibroblast growth factor (FGF), 5 μg/mL bovine insulin, 50 μg/mL gentamicin sulfate, and 50 ng/mL amphotericin B under humidified 95% air-5% CO2 at 37° C. Cells were used for experiments up to about 17 cumulative population doublings (i.e., passage 9); at this age they still stained positive for smooth muscle actin, a protein marker for smooth muscle cells.
For the SMC antiproliferation assay, the cells were seeded at 3×10^4 viable cells in 2 mL of SmGM-2 medium per well of a Corning 24 tissue culture well plate (Corning, N.Y.). Stock solutions of the test compounds were prepared just prior to addition to the cells by dissolving in DMSO at a concentration of 1000 times the highest concentration to be assayed. This stock solution was diluted, as required, with DMSO to lower concentrations. On the same day the cells were seeded, but after they had attached and spread out (about 3 hours), each test compound in varying concentrations (2 μL of the diluted stock solutions) was added to four replicate wells (n=4) for each concentration. Control cultures received 2 μL of DMSO per well (n=4). On the following morning, the cultures were examined microscopically and their condition recorded. On the third day after test compound addition (˜68 hours), the cultures were examined microscopically again and the viable cells counted with an hemacytometer following trypsinization with 0.25% trypsin-1 mM EDTA. Trypan Blue dye exclusion was used to discriminate between viable and dead cells. The results were usually presented as % of the control viable cell count (mean±SEM) and were used to determine the IC50 for the inhibition of proliferation of vascular smooth muscle cells.

[2] abbreviates: Homo sapiens, n=4, read-out: IC 50 for the inhibition of proliferation of vascular smooth muscle cells, Nitrosated and/or Nitrosylated Compound.
Setting [3] is: n=4, read-out: IC 50 for the inhibition of proliferation of vascular smooth muscle cells, Non-nitrosated and/or Non-nitrosylated Compound.

Experimental findings from patent US20060009431A1, “Nitrosated and nitrosylated compounds, compositions and methods use” (NitroMed, Inc., priority 2003, published 2006) are described below.

Where two headings read alike, the source gives them in different places. Bounds are passed on as bounds.

Consider `C[C@]12CC[C@@H]3c4ccc(OC(=O)CCC(=O)O[C@H]5CO[C@H]6[C@@H]5OC[C@H]6O[N+](=O)[O-])cc4CC[C@H]3[C@@H]1CC[C@@H]2O` [Example 32b, (1S,11S,14S,15S,10R)-14-Hydroxy-15-methyltetracyclo(8.7.0.0<2,7>0.0<11,15>)heptadeca-2,4,6-trien-5-yl(1S,2S,5S,6R)-6-(nitrooxy)-4,8-dioxabicyclo(3.3.0)oct-2-yl butane-1,4-dioate], for which the melting point (commonly the temperature of the solid-liquid transition) was 163 to 165 °C. Also, in data set [1] (setting [2]), the IC50 stood at 8 µM.

Take `C[C@]12CC[C@@H]3c4ccc(OCC(=O)OCCC5(SN=O)C6CC7CC(C6)CC5C7)cc4CC[C@H]3[C@@H]1CC[C@@H]2O` (stereo partly drawn) [Example 36b, 2-(2-(Nitrosothio)adamantan-2-yl)ethyl 2-((1S,11S,14S,15S,10R)-14-hydroxy-15-methyltetracyclo(8.7.0.0<2,7>0.0<11,15>)heptadeca-2,4,6-trien-5-yloxy)acetate]: the melting point lay within 48 to 50 °C. Also, the IC50 in data set [1] (setting [2]) worked out at 5 µM.

`C[C@]12CC[C@@H]3c4ccc(O)cc4/C(=N/OCC(=O)OCCC4(SN=O)C5CC6CC(C5)CC4C6)C[C@H]3[C@@H]1CC[C@@H]2O` (stereo partly drawn) [Example 37, 2-(2-(Nitrosothio)adamantan-2-yl)ethyl 2-(((1S,11S,14S,15S,10R)-5,14-dihydroxy-15-methyltetracyclo(8.7.0.0<2,7>0.0<11,15>)heptadeca-2,4,6-trien-8-ylidene)azamethoxy)acetate] had a melting point of 75 to 80 °C. Besides, the IC50 in data set [1] (setting [2]) is 1.4 to 2 µM.

`CC(C)(CNC(=O)CO/N=C1\C[C@@H]2[C@H](CC[C@]3(C)[C@@H](O)CC[C@@H]23)c2ccc(O)cc21)SN=O` [Example 41, 2-(((1S,11S,14S,15S,10R)-5,14-dihydroxy-15-methyltetracyclo(8.7.0.0<2,7>0.0<11,15>)heptadeca-2,4,6-trien-8-ylidene)azamethoxy)-N-(2-methyl-2-(nitrosothio)propyl)acetamide] came in with a melting point of 145 to 150 °C. For the same molecule, the IC50 in data set [1] (setting [2]) worked out at 10 µM.

On to `CC(C)(CNC(=O)COc1ccc2c(c1)CC[C@@H]1[C@@H]2CC[C@]2(C)[C@@H](O)CC[C@@H]12)SN=O` [Example 42, 2-((1S,11S,14S,15S,10R)-14-Hydroxy-15-methyltetracyclo(8.7.0.0<2,7>0.0<11,15>)heptadeca-2,4,6-trien-5-yloxy)-N-(2-methyl-2-(nitrosothio)propyl)acetamide], for which the melting point amounted to 40 °C. In addition, the IC50 in data set [1] (setting [2]) turned out to be 9 µM.

Regarding `C[C@]12CC[C@@H]3c4ccc(OCC(=O)OCCC5(S)C6CC7CC(C6)CC5C7)cc4CC[C@H]3[C@@H]1CC[C@@H]2O` (stereo partly drawn) [Example 45, 2-(2-Sulfanyladamantan-2-yl)ethyl 2-((1S,11S,14S,15S,10R)-14-hydroxy-15-methyltetracyclo(8.7.0.0<2,7>0.0<11,15>)heptadeca-2,4,6-trien-5-yloxy)acetate], the melting point was 78 to 80 °C. Moreover, in data set [1] (setting [3]), the IC50 amounted to 8 µM.

As for `C[C@]12CC[C@@H]3c4ccc(O)cc4/C(=N/OCC(=O)OCCC4(S)C5CC6CC(C5)CC4C6)C[C@H]3[C@@H]1CC[C@@H]2O` (stereo partly drawn) [Example 46, 2-(2-sulfanyladamantan-2-yl)ethyl 2-(((1S,11S,14S,15S,10R)-5,14-dihydroxy-15-methyltetracyclo(8.7.0.0<2,7>0.0<11,15>)heptadeca-2,4,6-trien-8-ylidene)azamethoxy)acetate], the melting point was in the range of 85 to 90 °C. In addition, the IC50 in data set [1] (setting [3]) was 5 to 12 µM.

In turn, `CC(C)(S)CNC(=O)CO/N=C1\C[C@@H]2[C@H](CC[C@]3(C)[C@@H](O)CC[C@@H]23)c2ccc(O)cc21` [Example 47, 2-(((1S,11S,14S,15S,10R)-5,14-dihydroxy-15-methyltetracyclo(8.7.0.0<2,7>0.0<11,15>)heptadeca-2,4,6-trien-8-ylidene)azamethoxy)-N-(2-methyl-2-sulfanylpropyl)acetamide] came in with a melting point of 87 to 90 °C. In addition, the IC50 in data set [1] (setting [3]) was more than 80 µM.

Molecule `CC(C)(S)CNC(=O)COc1ccc2c(c1)CC[C@@H]1[C@@H]2CC[C@]2(C)[C@@H](O)CC[C@@H]12` [Example 48, 2-((1S,11S,14S,15S,10R)-14-hydroxy-15-methyltetracyclo(8.7.0.0<2,7>0.0<11,15>)heptadeca-2,4,6-trien-5-yloxy)-N-(2-methyl-2-sulfanylpropyl)acetamide] returned a melting point of 50 to 52 °C. Further, the IC50 in data set [1] (setting [3]) stood at 11 µM.

`COc1ccc(C=C2c3ccccc3C(=NOCC(=O)NCC(C)(C)SN=O)c3ccccc32)cc1O` [Example 51, 2-((10-((3-Hydroxy-4-methoxyphenyl)methylene)(9-anthrylidene))-azamethoxy)-N-(2-methyl-2-(nitrosothio)propyl)acetamide] returned a melting point of 143 to 145 °C. Besides, the IC50 in data set [1] (setting [2]) is 10 µM.

As for `COc1ccc(C=C2c3ccccc3C(=NO)c3ccccc32)cc1O` [Example 52, 5-((10-(Hydroxyimino)(9-anthrylidene))methyl)-2-methoxyphenol], the melting point is 140 °C. The IC50 in data set [1] (setting [3]) came out at 0.6 µM.

`C[C@]12CC[C@@H]3c4ccc(OC(=O)c5ccccc5)cc4CC[C@H]3[C@@H]1CC[C@@H]2OC(=O)CCC(=O)O[C@H]1CO[C@H]2[C@@H]1OC[C@H]2O` [Example 57, (1S,11S,14S,15S,10R)-15-Methyl-5-phenylcarbonyloxytetracyclo(8.7.0.0<2,7>0.0<11,15>)heptadeca-2,4,6-trien-14-yl(1S,2S,5R,6R)-6-hydroxy-4,8-dioxabicyclo(3.3.0)oct-2-yl butane-1,4-dioate] displayed a melting point of 136 to 137 °C. For the same molecule, the IC50 in data set [1] (setting [3]) was more than 80 µM.

For `C[C@]12CC[C@@H]3c4ccc(OC(=O)CCC(=O)O[C@H]5CO[C@H]6[C@@H]5OC[C@H]6O)cc4CC[C@H]3[C@@H]1CC[C@@H]2O` [Example 58, (1S,11S,14S,15S,10R)-14-Hydroxy-15-Methyltetracyclo(8.7.0.0<2,7>0.0<11,15>)heptadeca-2,4,6-trien-5-yl(1S,2S,5R,6R)-6-hydroxy-4,8-dioxabicyclo(3.3.0)oct-2-yl butane-1,4-dioate], the melting point is 79 to 80 °C. Further, the IC50 in data set [1] (setting [3]) worked out at 12 µM.
